According to patent US6140336A, “Spiro[2H-1-benzopyran-2,4'-piperidine]-4(3H)-one derivatives, acid addition salts thereof and pharmaceutical compositions containing them” (Richter Gedeon Vegyeszeti Gyar Rt., priority 1996, dated 2000):
Counter-ions that a name gives are not always drawn. Like-named read-outs stand apart in the source and are kept apart here.

Experiments:
[1] = Stability of hydrogen maleate salt versus free base; assay type: physicochemical
[2] = assay type: in vivo, rats; settings: for ED50: i.v.
Procedure: These experiments were carried out on rats (with a body weight of 180-200 g) anaesthetized by urethane (1.25 g/kg i.p.) in such a way that 50 μg/kg of aconitine [chemically acetyl benzoyl aconine] was injected to the tail vein then, the arrhythmic disturbances were observed on ERG II lead after 5 minutes [J. Med. Exp. 10, 93 (1964)].
The compounds to be tested for antiarrhythmic effect were intravenously (i.v.) administered 2 minutes, or orally one hour before aconitine.
The aconitine arrhythmia was evaluated in such a manner that the severity of arrhythmia was characterized by an increasing number and, after average calculation both in the control as well as in the tested group, the average of treated group was expressed as percentage of the control. The arrhythmia was characterized by the following scores: […]

[3] = Electroshock (ECS) induced retrograde amnesia, passive avoidance test; assay type: in vivo, NMRI mice; settings: for Prevention %: 2 hours after learning
Description: (§1) The biological activity of the compounds of formulas (I) and (Ia) was studied by using passive avoidance test. This test is one of the most widely used animal experimental model for investigating the effects of substances on the cognitive functions (learning and memory processes). This is based on inhibition of the genetically determined behavior of rodents (mice and rats) that they prefer dark space to light one. A single electric shock given in the dark box is employed as a memory trace, the retention and retrieval of which can be controlled after a shorter or longer period.
In this test, the retrograde amnesia was induced on NMRI mice having a body weight of 24-26 g by using an auricular electroshock treatment of 20 mA for 0.2 s at one hour following the learning. The compounds to be tested were administered 2 hours after learning. The protective effect was calculated as percentage value (p%D) by using the following formula: [formula]
P%=Ttreated+ECS -Tplacebo+ECS /Tplacebo -Tplacebo+ECS
(§2) In the above formula, T means the measured retention time of animals treated as shown in the index or the measured retention time of untreated animals, respectively.

[4] = Diazepam (DIA) induced anterograde amnesia, passive avoidance test; assay type: in vivo, NMRI mice; settings: for inhibition in vivo at 0.1 mg/kg / inhibition in vivo at 10 mg/kg: Mus musculus, po, 1 h, read-out: Prevention %; for significantly antagonized the amnesic effect of diazepam (percentage): Table 1, p.o.; for antiamnesic effect (overall): overall conclusion from the amnesia tests; for protection against the amnesic effect of diazepam, lower versus higher dose: 0.1 mg/kg and 10 mg/kg p.o.
Description: as §1
The passive avoidance test was carried out on NMRI mice with a body weight of 25-28 g. During the learning, preselected animals (mice entering into a dark space from an illuminated space within 30 s) were placed into an illuminated space. After entering into the dark space, the animal received within 30 s onto his paw an electric shock (1 mA for 3 s) causing an unpleasant sensation. The time of entry into the dark space (latency period) was measured. During the check, after 24 hours, the animals were again put back to the illuminated space and the time elapsed until entry into the dark space (retention time) was measured (limit time=300 s). The animals were intraperitoneally (i.p.) treated with 3 mg/kg of diazepam (chemically, 7-chloro-1,3-dihydro-1-methyl-5-phenyl-2H-1,4-benzodiazepin-2-one) 30 minutes before learning in order to induce anterograde amnesia. The compounds were orally (p.o.) administered in doses of 0.1 or 10 mg/kg, respectively one hour before the learning. The protective effect was calculated percentage value (P%) by using the following formula: [formula]
as §2

[5] = system: neuronal calcium uptake (veratrine-induced); assay: Veratrine-induced 45Ca uptake by synaptosome preparation; assay type: biochemical
Procedure: (§3) Compound 4610351 has been investigated in detail both under in vitro and in vivo conditions. This compound evened 36% protection in an oral dose of 10 mg/kg in the normobaric hypoxia-induced memory deficiency model on rats; this surpassed the protective effect of 21% provided by 10 mg/kg oral dose of vinpocetine. […] On the basis of these investigations, compounds of formulas (I) and (Ia) can be utilized for the treatment of diseases and dementias accompanied by the impairment of cognitive processes (learning, memory), such as multiinfarct and Alzeimer type dementias, states following stroke, ischaemic injuries, sequels of trauma of the central nervous system, parkinsonism, Huntington's chorea or multiple sclerosis. The therapeutical doses of compounds of formulas (I) and (Ia) can range between 0.1 and 40 mg/kg of body weight given orally, daily once or several times.

[6] = Normobaric hypoxia-induced memory deficiency model on rats; assay type: in vivo; settings: 10 mg/kg oral
Procedure: as §3

[7] = system: neuronal calcium uptake (K^+ -induced); assay: K+ -induced 45Ca uptake by synaptosome preparation; assay type: biochemical
Procedure: as §3

[8] = 30 mg/kg p.o., one hour before aconitine
[9] = 10 mg/kg p.o., * marks significance
[10] = 0.1 mg/kg p.o., one hour before learning, diazepam 3 mg/kg i.p., * = p < 0.05 vs diazepam control
[11] = 10 mg/kg p.o., one hour before learning, diazepam 3 mg/kg i.p., * = p < 0.05 vs diazepam control

SMILES | Inhibition (%) ([2]; 10 mg/kg i.v.) | Inhibition (%) ([2]; 30 mg/kg i.v.) | Inhibition (%) [2, 8] | inhibition in vivo at 0.1 mg/kg [4, 10] | inhibition in vivo at 10 mg/kg [4, 11] | significantly antagonized the amnesic effect of diazepam (percentage) [4] | antiamnesic effect (overall) [4] | further results
O=C1CC2(CCN(Cc3ccccc3)CC2)Oc2ccccc21 |  |  |  |  |  |  |  | stability over the free base form [1]: higher stability
CCCCc1oc2ccccc2c1C(=O)c1cc(I)c(OCCN(CC)CC)c(I)c1 [Amiodarone] | 70% |  |  |  |  |  |  | Inhibition (%) ([2]; 3.0 mg/kg i.v.): 13%; Inhibition (%) ([2]; 5.0 mg/kg i.v.): 29%; ED50 [2]: 7.04 mg/kg
CCN1C[C@H]2CN(C)C[C@@H](C1)C2OC(=O)c1ccc(Cl)cc1 (stereo partly drawn) [Bisaramil, 3-methyl-7-ethyl-9α-(4-chlorobenzoyloxy)-3,7-diazabicyclo[3.3.1]nonane hydrochloride] |  |  |  |  |  |  |  | Inhibition (%) ([2]; 0.3 mg/kg i.v.): 20%; Inhibition (%) ([2]; 0.5 mg/kg i.v.): 48%; Inhibition (%) ([2]; 1.0 mg/kg i.v.): 91%; ED50 [2]: 0.49 mg/kg
O=C1CC2(CCN(Cc3ccccc3)CC2)Oc2ccccc21 [Compound 4600592, 1'-Benzylspiro[2H-1-benzopyran-2,4'-piperidine]-4(3H)-one] | 3% | 19% | 0% | 144% | 92% | 105-176% |  | Prevention % ([3]; 1 mg/kg p.o.): 48%; Prevention % [3, 9]: 44%; protection in ECS-induced retrograde amnesia ([3]; mouse, in vivo): No considerable protection
O=C1CC2(CCN(Cc3ccc(F)cc3)CC2)Oc2ccccc21 [Compound 4610282] |  |  |  | 131% | 24% | 105-176% | significant antiamnesic effect | protection in ECS-induced retrograde amnesia ([3]; 0.1 mg/kg (as printed in text)): 77%; Prevention % ([3]; 1 mg/kg p.o.): 77%; Prevention % [3, 9]: 29%
O=C1CC2(CCN(Cc3ccc([N+](=O)[O-])cc3)CC2)Oc2ccccc21 [Compound 4610350] |  |  |  | 170% | 29% | 105-176% | significant antiamnesic effect | Prevention % ([3]; 1 mg/kg p.o.): 0%; Prevention % [3, 9]: 8%; antiamnesic action in lower doses ([4]; 0.1 mg/kg p.o.): showed an antiamnesic action; antiamnesic action in higher doses ([4]; 10 mg/kg p.o.): inactive
O=C1CC2(CCN(Cc3ccc(Cl)cc3)CC2)Oc2ccccc21 [Compound 4610351] | 16% | 16% | 5% | 78% | 176% | 105-176% | significant antiamnesic effect | Prevention % ([3]; 1 mg/kg p.o.): 81%; Prevention % [3, 9]: 108%; reversal of ECS-caused amnesia ([3]; both doses): could significantly reverse the ECS-caused amnesia in both doses; reversal of ECS-caused amnesia ([3]; higher dose): 108%; IC50 [5]: 4.5 µM; protection, normobaric hypoxia-induced memory deficiency [6]: 36%; IC50 [7]: 45.6 µM
O=C1CC2(CCN(Cc3ccc(Br)cc3)CC2)Oc2ccccc21 [Compound 4611109] |  |  |  | 92% | 0% |  |  | antiamnesic action in lower doses ([4]; 0.1 mg/kg p.o.): showed an antiamnesic action; antiamnesic action in higher doses ([4]; 10 mg/kg p.o.): inactive
O=C1CC2(CC[N+](Cc3ccc([N+](=O)[O-])cc3)(Cc3ccc([N+](=O)[O-])cc3)CC2)Oc2ccccc21 [Compound 4611265] | 21% | 10% | 0% |  |  | 105-176% | significant antiamnesic effect | protection against the amnesic effect of diazepam, lower versus higher dose [4]: nearly the same protection; inhibition in vivo at 0.1 mg/kg [4]: 86%; inhibition in vivo at 10 mg/kg [4]: 134%
CC(C)(C)c1ccc(CN2CCC3(CC2)CC(=O)c2ccccc2O3)cc1 [Compound 4611266, 1'-(4-tert-butylbenzyl)-spiro[2H-1-benzopyran-2,4'-piperidine]-4(3H)-one] | 21% | 3% | 0% | 159% | 105% | 105-176% | significant antiamnesic effect | protection against the amnesic effect of diazepam, lower versus higher dose [4]: nearly the same protection
O=C1CC2(CC[N+](Cc3ccccc3)(Cc3ccccc3)CC2)Oc2ccccc21 [Compound 4611267, 1',1'-dibenzyl-spiro[2H-4(3H)-oxo-1-benzopyran-2,4'-piperidinium]hydrochloride] | 0% | 29% | 0% | 47% | 67% |  |  | 
Cc1cccc(C)c1OCC(C)N (stereo not shown) [Mexiletine, 1-methyl-2-(2,6-xylyloxy)ethylamine] | 62% |  |  |  |  |  |  | Inhibition (%) ([2]; 1.0 mg/kg i.v.): 29%; Inhibition (%) ([2]; 3.0 mg/kg i.v.): 68%; ED50 [2]: 2.51 mg/kg
C=C[C@H]1C[N@@]2CC[C@H]1C[C@@H]2[C@@H](O)c1ccnc2ccc(OC)cc12 [Quinidine, (S)-(6-methoxy-4-quinolinyl)-[(2R.4S.5R)-5-vinyl-2-quinuclidinyl]methanol] | 55% | 83% |  |  |  |  |  | Inhibition (%) ([2]; 0.3 mg/kg i.v.): 34%; ED50 [2]: 6.66 mg/kg
NC(=O)[C@@H]1CCCN1C(=O)[C@H](Cc1c[nH]cn1)NC(=O)[C@@H]1CCC(=O)N1 [TRH, 5-oxo-L-prolyl-L-histidyl-L-proline amide, reference compound] |  |  |  |  |  |  |  | Prevention % ([3]; 1 mg/kg i.p.): 77%; Prevention % ([3]; 10 mg/kg i.p.): 35%
CCOC(=O)C1=C[C@]2(CC)CCCN3CCc4c(n1c1ccccc41)[C@@H]32 [Vinpocetine, ethyl apovincaminate, reference compound] |  |  |  | 0% | 123% |  |  | protection, normobaric hypoxia-induced memory deficiency [6]: 21%
